{
  "source": "patent US11058735B2",
  "about": "“Formulations containing pomegranate seed oil, rosa canina fruit oil and inula viscosa oleoresin or extract” (POMEGA, INC., priority 2014, dated 2021)",
  "origin": "cited, not measured here",
  "details": "compared with grape seed extract, background statement",
  "data": [
    {"smiles": "CCCC\\C=C/C=C/C=C\\CCCCCCCC(=O)O", "note": "[Punicic acid]", "values": [
      {"measurement": "antioxidant power relative to grape seed extract", "value": "approximately 10 times"}
    ]}
  ]
}
